*1 amine or outer side, *2 acyl side, *3 side chain or, on linkers, in order; H or OH if unused. Where a SMILES comes first, the peptide text is derived from it. Side-chain parts run from the residue outwards. [ ]: non-standard residue; d: D form. The star is where a group is joined. C18 diacid = O=C(O)CCCCCCCCCCCCCCCCC(=O)*; γGlu = O=C(O)[C@H](CCC(=O)[*:2])N[*:1]; Desaminohistidyl = O=C(CCc1c[nH]cn1)*; AEEA = NCCOCCOCC(=O)O; Aib = CC(C)(N)C(=O)O
Tests used:
[1] = molecular target: T1, human glucagon receptor (Homo sapiens, UniProt P47871); assay: Assay (I)(b): glucagon receptor potency, CRE luciferase reporter gene assay in BHK cells; format: cell-based; details: BHK cells expressing human glucagon receptor, read-out: EC50 GlucagonR
T1 construct: expressed in transfected cells; host or cells: membranes of BHK cells, clone BHK hGCGR A3*25
Experimental: Assay (I): GLP-1 and Glucagon Receptor Potency The purpose of this example was to test the activity or potency, of the GLP-1 derivatives of the invention, in vitro. The in vitro potency is the measure of human GLP-1 receptor (GLP-1R) or glucagon receptor (glucagonR) activation, respectively, in a whole cell assay. In vitro potency was determined by measuring the cellular response of human GLP-1 or glucagon receptor activation, respectively, in a reporter gene assay. The assay was performed in a BHK cell line that stably expresses either the human GLP-1 receptor or the human glucagon receptor and comprises the DNA for the cAMP response element (CRE) coupled to a promoter and the gene for firefly luciferase (CRE luciferase). […] When assay incubation was completed, the luciferase substrate (luciferin) was added and the enzyme converted luciferin to oxyluciferin and produces bioluminescence. The luminescence was measured as the readout for the assay. […] The cells were counted and adjusted to 5×10EE3 cells/50 μl (1×10EE5 cells/ml) in Assay Medium. […] Each assay plate was read in a Perkin Elmer TopCount NXT instrument. […] EC50 values were calculated by the software and reported in pM.

[2] = molecular target: T2, human GLP-1 receptor (Homo sapiens, UniProt P43220); assay: Assay (I)(a): GLP-1 receptor potency, CRE luciferase reporter gene assay in BHK cells; format: cell-based; details: BHK cells expressing human GLP-1 receptor, read-out: EC50 GLP-1R
T2 construct: expressed in transfected cells; host or cells: membranes of BHK cells, parent line BHKTS13, clone FCW467-12A
Procedure, shortened: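 BHK cells (clone FCW467-12A/KZ10-1), 5×10EE3/well, exposed 3 h at 37° C to compound at 1×10EE-13 to 1×10EE-6 M final in medium with 2% ovalbumin and 0.2% Pluronic F-68. Luciferase luminescence read; EC50 (pM) from four-parameter fit.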

[3] = Assay (III): ThT fibrillation assay for physical stability; format: physicochemical; details: pH 7.5, 10 mM HEPES buffer, 37° C., shaking 960 rpm
Description: Assay (III): ThT Fibrillation Assay for the Assessment of Physical Stability of Peptide Compositions
The purpose of this assay is to assess the physical stability of the GLP-1 derivatives of the invention in aqueous solutions.
Low physical stability of a peptide may lead to amyloid fibril formation, which is observed as well-ordered, thread-like macromolecular structures in the sample, which eventually may lead to gel formation. This has traditionally been measured by visual inspection of the sample. However, that kind of measurement is very subjective and depending on the observer. Therefore, the application of a small molecule indicator probe is much more advantageous. Thioflavin T (ThT) is such a probe and has a distinct fluorescence signature when binding to fibrils [Naiki et al. (1989) Anal. Biochem. 177, 244-249; LeVine (1999) Methods. Enzymol. 309, 274-284]. […]
Here, as depicted in FIG. 1, F is the ThT fluorescence at the time t. The constant t0 is the time needed to reach 50% of maximum fluorescence. The two important parameters describing fibril formation are the lag-time calculated by t0−2τ and the apparent rate constant kapp 1/τ. […]
Incubation at given temperature, shaking and measurement of the ThT fluorescence emission were done in a Fluoroskan Ascent FL fluorescence platereader (Thermo Labsystems). […]

[4] = molecular target: T2, human GLP-1 receptor; assay: Assay (II)(a): GLP-1 receptor binding, [125I]GLP-1 displacement, SPA on BHK membranes; details: displacement of [125I]GLP-1, membranes with human GLP-1 receptor; read-out: IC50 GLP-1R
Procedure, shortened: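 Membranes from BHK cells expressing human GLP-1 receptor with WGA SPA beads, [125I]GLP-1(7-36)NH2 (480 pM added solution) and compound in HEPES pH 7.4 buffer with EGTA, MgCl2, Tween 20. Incubated 2 h at 30° C; SPA counts fitted by non-linear regression to IC50 in nM.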

T2 sequence (P43220 24-463): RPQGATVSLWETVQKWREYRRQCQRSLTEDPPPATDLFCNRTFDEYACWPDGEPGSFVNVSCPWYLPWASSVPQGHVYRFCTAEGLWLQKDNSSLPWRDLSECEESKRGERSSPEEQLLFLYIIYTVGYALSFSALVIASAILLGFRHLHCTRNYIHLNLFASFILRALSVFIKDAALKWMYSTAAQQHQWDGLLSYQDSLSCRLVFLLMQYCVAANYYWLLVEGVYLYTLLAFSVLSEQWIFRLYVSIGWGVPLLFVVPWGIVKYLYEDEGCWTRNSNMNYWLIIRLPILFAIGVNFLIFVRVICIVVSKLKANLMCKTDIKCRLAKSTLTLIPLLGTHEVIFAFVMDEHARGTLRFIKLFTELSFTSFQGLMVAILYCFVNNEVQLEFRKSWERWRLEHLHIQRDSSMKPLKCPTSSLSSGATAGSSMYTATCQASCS
T1 sequence (P47871 26-477): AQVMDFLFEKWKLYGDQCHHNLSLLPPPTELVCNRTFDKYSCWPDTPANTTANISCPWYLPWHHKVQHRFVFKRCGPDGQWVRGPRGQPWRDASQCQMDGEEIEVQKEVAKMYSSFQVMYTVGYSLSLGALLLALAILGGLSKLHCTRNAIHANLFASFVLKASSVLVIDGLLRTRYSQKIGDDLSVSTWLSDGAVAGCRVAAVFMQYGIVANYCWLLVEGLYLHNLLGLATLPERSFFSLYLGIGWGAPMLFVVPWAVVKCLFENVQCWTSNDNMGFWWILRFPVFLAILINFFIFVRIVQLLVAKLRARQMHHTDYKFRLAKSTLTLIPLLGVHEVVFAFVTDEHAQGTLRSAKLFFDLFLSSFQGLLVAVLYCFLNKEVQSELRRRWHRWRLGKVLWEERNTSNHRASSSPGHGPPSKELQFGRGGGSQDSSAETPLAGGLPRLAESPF

| SMILES | EC50 [1] [nM] | EC50 [2] [nM] | ThT assay pH 7.5: Lag time [3] [h] | IC50 [4] [nM] |
| --- | --- | --- | --- | --- |
| CC[C@H](C)[C@H](NC(=O)[C@H](Cc1ccccc1)NC(=O)[C@H](CCCCNC(=O)COCCOCCNC(=O)COCCOCCNC(=O)CC[C@H](NC(=O)CC[C@H](NC(=O)CC[C@H](NC(=O)CCCCCCCCCCCCCCCCC(=O)O)C(=O)O)C(=O)O)C(=O)O)NC(=O)[C@H](CCCNC(=N)N)NC(=O)[C@H](C)NC(=O)[C@H](C)NC(=O)[C@H](CCC(N)=O)NC(=O)[C@H](CCC(=O)O)NC(=O)[C@H](CCC(=O)O)NC(=O)[C@H](CC(C)C)NC(=O)[C@H](Cc1ccc(O)cc1)NC(=O)[C@H](CCCNC(=N)N)NC(=O)[C@H](CO)NC(=O)[C@@H](NC(=O)[C@H](CC(=O)O)NC(=O)[C@H](CO)NC(=O)[C@@H](NC(=O)[C@H](Cc1ccccc1)NC(=O)[C@@H](NC(=O)CNC(=O)[C@H](Cc1c[nH]cn1)NC(=O)C(C)(C)NC(=O)CCc1c[nH]cn1)[C@@H](C)O)[C@@H](C)O)C(C)C)C(=O)N[C@@H](C)C(=O)N[C@@H](Cc1c[nH]c2ccccc12)C(=O)N[C@@H](CC(C)C)C(=O)N[C@@H](CC(C)C)C(=O)N[C@@H](CCCNC(=N)N)C(=O)O [Example 19, N^ε27-[2-[2-[2-[[2-[2-[2-[[(4S)-4-carboxy-4-[[(4S)-4-carboxy-4-[[(4S)-4-carboxy-4-(17-carboxyheptadecanoylamino)butanoyl]amino]butanoyl]amino]butanoyl]amino]ethoxy]ethoxy]acetyl]amino]ethoxy]ethoxy]acetyl]-[Imp7,Aib8,His9,Arg18,Glu22,Arg26,Lys27,Leu33,Arg34]-GLP-1-(7-34)-peptide] (Desaminohistidyl-[Aib]HGTFTSDVSRYLEEQAARK([AEEA-AEEA-γGlu-γGlu-γGlu-C18 diacid])FIAWLLR-OH) | 0.143 | 0.007 | – | – |
| CC[C@H](C)[C@H](NC(=O)[C@H](Cc1ccccc1)NC(=O)[C@H](CCC(=O)O)NC(=O)[C@H](CCCNC(=N)N)NC(=O)[C@H](C)NC(=O)[C@H](C)NC(=O)[C@H](CCC(N)=O)NC(=O)[C@H](CCCCNC(=O)CC[C@H](NC(=O)CC[C@H](NC(=O)COCCOCCNC(=O)COCCOCCNC(=O)CC[C@H](NC(=O)CCCCCCCCCCCCCCCCC(=O)O)C(=O)O)C(=O)O)C(=O)O)NC(=O)[C@H](CCC(=O)O)NC(=O)[C@H](CC(C)C)NC(=O)[C@H](Cc1ccc(O)cc1)NC(=O)[C@H](CCCCN)NC(=O)[C@H](CO)NC(=O)[C@@H](NC(=O)[C@H](CC(=O)O)NC(=O)[C@H](CO)NC(=O)[C@@H](NC(=O)[C@H](Cc1ccccc1)NC(=O)[C@@H](NC(=O)CNC(=O)[C@H](Cc1c[nH]cn1)NC(=O)C(C)(C)NC(=O)CCc1c[nH]cn1)[C@@H](C)O)[C@@H](C)O)C(C)C)C(=O)N[C@@H](C)C(=O)N[C@@H](Cc1c[nH]c2ccccc12)C(=O)N[C@@H](CC(C)C)C(=O)N[C@@H](CC(C)C)C(=O)N[C@@H](CCCCN)C(=O)NCC(=O)NCC(=O)NCC(=O)O [Example 13, N^ε22-[(4S)-4-carboxy-4-[[(4S)-4-carboxy-4-[[2-[2-[2-[[2-[2-[2-[[(4S)-4-carboxy-4-(17-carboxyheptadecanoylamino)butanoyl]amino]ethoxy]ethoxy]acetyl]amino]ethoxy]ethoxy]acetyl]amino]butanoyl]amino]butanoyl]-[Imp7,Aib8,His9,Lys18,Lys22,Arg26,Leu33,Gly36]-GLP-1-(7-37)-peptide] (Desaminohistidyl-[Aib]HGTFTSDVSKYLEK([γGlu-γGlu-AEEA-AEEA-γGlu-C18 diacid])QAAREFIAWLLKGGG-OH) | – | – | 45.0 | 0.5 |

Source: US9988430B2, “Stable GLP-1 based GLP-1/glucagon receptor co-agonists” (Novo Nordisk A/S, priority 2014, dated 2018)
